Eleven substances from patent US6339062B1, “Retroinverso polypeptides that mimic or inhibit thrombospondin activity” (Inkine Pharmaceutical Company, Inc., priority 1998, dated 2002) can be followed below.

Bridges are numbered along the chain shown (N, C = ends). Where no end group is shown, it is not given here.

The test system of assay [1] is mouse B16-F10 melanoma cells. The assay can be described thus: Boyden chamber assay, TSP-1 mediated invasion of collagen (Examples 29, 30). The assay is classed as cell-based. The note with it: for inhibition of TSP-1 mediated invasion: 500 μg/ml peptide top chamber, 20 μg/ml TSP-1 bottom chamber, 6 hours, FIG. 18. As for the experimental part:
Cell invasion was investigated by the Boyden Chamber Invasion Assay using the modified Boyden chamber. T. Frandsen et al., Fibrinolysis, 6: 71-76 (1992). Polycarbonate filters, 12 μm pore size, e.g., Millicell, Millipore Corporation, Bedford, Ma, were coated with 100 μg Type IV collagen (1 mg/ml 60% EtOH) and dried overnight at 25° C. Blind-well Boyden chambers are filled with 600 μl of serum-free media containing 0.1% BSA in the lower compartment, and the coated filters will be mounted in the chamber. Approximately 50,000 cells (tested to be greater than 95% viable) suspended in 400 μl of the same media will be placed in the upper chamber of the apparatus and allowed to settle onto the collagen-coated membrane. Varying concentrations of TSP-1 (0-150 nM) will be placed in the lower compartment and any neutralizing antibodies as well as peptides will be placed in the upper chamber. After an incubation period of about 3 to 6 hours at 37° C., the cells on the upper surface of the filter will be removed with a cotton swab. The filters are then fixed in 3% glutaraldehyde solution and stained with 0.5% crystal violet solution. Invasive cells adhering to the under-surface of the filter are counted using a phase contrast microscope (400×).
Using this assay, mouse B16-F10 melanoma cells (50,000) were plated on the collagen-coated disk of the Boyden chamber apparatus. The top chamber contained melanoma cells in the presence of 500 μg/ml of the TSP-1 derived peptide and the bottom chamber contained 20 μg/ml TSP-1. After 6 hours, cells traversing the collagen were counted as cells attached to the underside of the collagen-coated disk. Five representative fields per chamber in duplicate were counted. The data shown in FIG. 18 represents the average per field and the error bars represent the standard deviation. The scrambled peptide, Val-Cys-Thr-Gly-Ser-Cys (SEQ ID NO: 7), the irrelevant peptide, Ala-Ser-Val-Thr-Ala-Arg (SEQ ID NO: 38), buffer, and the d-amino acid Cys-Ser-Val-Thr-Cys-Gly (SEQ ID NO: 40) had no effect on invasion.
The experiments were performed as described for Example 29. […] In contrast, d-Cys-Ser-Val-Thr-Cys-Gly (SEQ ID NO: 40) had no effect.

In assay [2] the test system is mouse B16-F10 melanoma cells. The assay is described as follows: Direct adhesion to dried peptide (Example 31). The class given is cell-based. The note with it: 10 μg of each peptide; one hour; FIG. 20. As to the method:
Peptide effect on direct adhesion was tested by drying 10 μg of each peptide on the bottom of a 96well microtiter plate. Plates were blocked with BSA. Mouse B16-F10 melanoma cells (50,000) were plated in each well and allowed to attach for one hour. Non-adherent cells were aspirated out, plates rinsed, and adherent cells were fixed, stained, and counted. The error bars represent the standard deviation.

Assay [3] relates to MMP-9 production in BAE cells. The assay is described as follows: TSP-1-stimulated endothelial MMP-9 production (Example 27). The assay is classed as cell-based. To be noted: for Relative MMP-9 Levels / % inhibition (MMP-9): with 15 μg/ml TSP-1; for inhibited MMP-9 production: at high doses. As to the method: BAE cells were treated with TSP-1 as described in Example 27. MMP-9 levels were quantitated from densitometry of the zymograms prepared from the BAE cell conditioned media. The control was 15 μg/ml TSP-1. All other treatments were performed in the presence of 15 μg/ml TSP-1.

A further assay concerns platelets. The assay is described as follows: Direct platelet adhesion assay (Example 18). The class given is cell-based. The note with it: wells treated with 50 μl of 40 μg/ml. As to the method: The number of adherent platelets was essentially determined as previously described (Tuszynski et al., Anal. Bio., supra). Briefly, 100 μl of 5×10^8 platelets/ml washed as previously described (Tuszynski, et al., Blood, 72:109-225 (1988)) were added to microtiter plates, the wells of which were treated with 50 μl of a 40 μg/ml peptide or protein solution (Hepes buffered saline, pH 7.4). Solutions were dried at room temperature after incubation in a fume hood for two hours. Wells were blocked for one hour with 1% BSA. Platelets (100 μl) were incubated in the wells for 30 minutes and non-adherent platelets were removed by aspiration. Wells were washed 3× with 200 μl of Hepes buffered saline, pH 7.4. The number of adherent platelets was determined by measuring the platelet-derived protein using the BCA protein assay.

Assay [4] deals with melanoma cells on absorbed thrombospondin. The assay can be described thus: Competitive assay, thrombospondin specific adhesion to melanoma cells (Example 17). The class given is cell-based, mouse. The source says: The direct adhesion assay of Example 16 was modified to measure the ability of the peptide compounds of the invention to compete with intact thrombospondin for adhesion to melanoma cells.
In this assay, intact thrombospondin is absorbed onto microtiter dishes as described in Example 16. […]

The subject of assay [5] is platelets (platelet-rich-plasma). The assay can be described thus: Platelet aggregation assay in platelet-rich-plasma (Example 8). The assay is classed as cell-based. To be noted: in vitro; FIG. 22. As to the method: Platelet aggregation was monitored on a single-channel aggregometer equipped to measure luminescence (Chromo-Log, Havertown, Pa.). Platelet-rich-plasma (PRP) was obtained from whole blood anticoagulated with 0.38% sodium citrate by centrifugation at 150×g for 20 minutes.
0.5 ml aliquots of platelet-rich-plasma were aggregated by stirring with 2 uM ADP in the presence of various concentrations of Cys-Ser-Val-Thr-Cys-Gly (SEQ ID NO: 21) and Gly-Arg-Gly-Asp-Ser (SEQ ID NO: 36). Aggregation was measured at 37° as decrease in optical absorbance vs. time in a chrono-log aggregometer and is shown in FIG. 8. Peptides designated in each panel are represented by their amino acid sequence using the one letter amino acid code.

The subject of assay [6] is B16 F10 mouse melanoma cells. The assay is described as follows: Antimetastatic activity in vivo (Example 20). Also noted: species or system C57 black mice. The note with it: 16 days.
Assay [7] concerns mouse B16-F10 melanoma cells. The assay can be described thus: Melanoma tumor cell metastasis, peptide i.v. (Example 21). To be noted: 1 mg peptide i.v. shortly before or after tumor implantation; two weeks; FIG. 12. The class given is in vivo, mice. The source says:
Mice were sacrificed two weeks later and lung tumors counted. Treatment groups consisted of five animals. The photograph of FIG. 12 depicts three lungs from each treatment group. The black spots are melanoma tumors. All metastasis experiments were repeated 2-3 times showing qualitatively similar results depicted in the bar graph of FIG. 12.

The subject of assay [8] is Mouse B16 F10 melanoma cells. The assay can be described thus: Direct adhesion assay (Example 16). The class given is cell-based. The note with it: absorbed compound 2 μg. As to the method:
It is believed that thrombospondin acts in metastasis through its adhesive properties. An assay was developed, generally in accordance with the disclosure of Tuszynski et al., Anal. Bio., 184:189-91 (1990), which evaluates the ability of melanoma cells to adhere to the thrombospondin fragments or analogs of the invention. In this assay, wells of a 96-well microtiter dish (Costar, Cambridge, Mass.) were incubated for two to three hours with […] of a […] solution of various ligands in 20 mM NaCl, pH 7.3. Thrombospondin (purified by the method of Tuszynski et al., J. Biol. Chem., 260:12240-5 (1985), fibronectin (Sigma Chemical Co., Missouri) served as the positive control. Bovine serum albumin (BSA) (Sigma Chemical Co.) served as the negative control. Thrombospondin analogs of the invention p1, p5 and p6 were synthesized as described in Examples 1 through 3. Following peptide adhesion to the microtiter dish, the wells were aspirated, treated with 200 μl phosphate buffered saline (PBS) containing 1% BSA for 1 hour and then washed three more times with 200 μl PBS.
Mouse B16 F10 melanoma cells were grown and harvested during log phase of growth using standard procedures. The harvested cells were washed two times in serum-free Dulbecco's minimum essential medium (DMEM) (Flow Laboratories) and suspended in DMEM at a final concentration of 4×10^5 cells/ml. Of the cell suspension 100 μl was added to each well of the microtiter dish containing the various ligands and the dish incubated at 37° C. in a CO2 incubator for 1 hour. Nonadherent cells were removed by aspiration and the wells washed three times with 200 μl of PBS. The total cell-associated protein was determined by dissolving the attached cells directly in the microtiter wells with 200 μl of the Pierce BCA working solution (Pierce Chem. Co. Booklet No. 23225 (1987)). […] Plates were allowed to cool to room temperature, cover sheets were removed, and the absorbance of each well was determined at 562 nm with a microtiter plate reader (Biotek, Burlington, Vt.)

Assay [9] deals with platelets on absorbed thrombospondin (TSP). The assay can be described thus: Competitive platelet adhesion assay, absorbed thrombospondin (Example 19). The assay is classed as cell-based. To be noted: 250 μg/ml; absorbed protein TSP. As for the experimental part: (§1) The direct adhesion assay of Example 18 was modified to measure the ability of the peptide compounds of the invention to compete with intact thrombospindin or fibronectin for adhesion of platelets.
(§2) In this assay, thrombospondin (TSP) or fibronectin (FN) was absorbed onto microtiter dish as described in Example 18. The assay was similar to Example 18 except that before platelets were added to the microtiter dishes they were preincubated with 250 μg/ml of various ligands.

Assay [10] concerns platelets on absorbed fibronectin (FN). The assay can be described thus: Competitive platelet adhesion assay, absorbed fibronectin (Example 19). The assay is classed as cell-based. To be noted: 250 μg/ml; absorbed protein FN. As to the method:
as §1, §2

For the substance ASVTAR [irrelevant peptide], the “inhibition of TSP-1 mediated invasion” value in assay [1] is recorded as “no effect”. Also, the “adhesion of cells to dried peptide” value in assay [2] is recorded as “did not promote adhesion”. For the same substance, in assay [3] (0.20 mM), the “Relative MMP-9 Levels” value came out at 0.78. Also, in assay [3], the “inhibited MMP-9 production” value is “no effects”.
“WSPCSVTCG (cysteine pairing not given here) [p1]”: the “Adherence as % Control (adherent platelets)” value (from here on “Adherence as % Control”) in the assay on platelets is listed as “adhere to platelets”; in the assay with platelets (listed as P1), 39%. Further, the results for the “% of Buffer Control (melanoma cell adhesion to thrombospondin)” value in assay [4] (10 μg/ml) and in [4] (50 μg/ml) were 49% and 40%, respectively. In addition, the platelet aggregation entry in assay [5] is given as “inhibit platelet aggregation”. The “% buffer control (number of lung tumors)” value in [6] (30 μg/mouse) was 49%. Moreover, the “number of tumors compared with controls” value in assay [6] is listed as “statistically fewer tumors than controls”. In addition, the “size of lung tumors” value in [6] is recorded as “smaller in size”.
As to fibronectin [reference compound], in the assay with platelets, the “Adherence as % Control” value amounted to 83%.
With “Cys-Ser-Val-Thr-Cys-Gly (disulfide linked) (CSVTCG; disulfide 1-5 (inferred)) [cyclic Cys-Ser-Val-Thr-Cys-Gly]”, the “melanoma cell metastasis (lung tumors)” value in assay [7] is “significantly blocked”.
“CSTSCG (cysteine pairing not given here)”: the “melanoma cell metastasis (lung tumors)” value in assay [7] is reported as “significantly blocked”.
Turning to d-Gly-Cys-(Acm)-Thr-Val-Ser-Cys-(Acm), the “dose-dependent effect on melanoma cell invasion” value in [1] (FIG. 19) is reported as “same dose-dependent inhibition”. Also, in assay [2], the “adhesion of cells to dried peptide” value is “half as well as fibronectin and TSP-1”.
With “Thrombospondin: purified thrombospondin, positive control [reference compound]”, the “Adherence as % Control” value in the assay on platelets worked out at 100%. In addition, in assay [8], the “Adhesion as % Thrombospondin” value was 100%.
Consider “VCTGSC (cysteine pairing not given here) [scrambled peptide control, reference compound]”, for which the “inhibition of TSP-1 mediated invasion” value in [1] is recorded as “no effect”. In addition, in assay [2], the “adhesion of cells to dried peptide” value is recorded as “did not promote adhesion”.
In the case of “Trp-Ser-Pro-Cys-Ser-Val-Thr-Cys-Gly-NH2 (WSPCSVTCG-NH2; cysteine pairing not given here) [p6]”, the “% of Buffer Control (melanoma cell adhesion to thrombospondin)” value in assay [4] (200 μg/ml) and in assay [4] (300 μg/ml) was 74% in each case. The platelet aggregation entry in assay [5] was “inhibit platelet aggregation”. Also, the entries for the “% Buffer Control (platelet adhesion)” value in [9] and in assay [10] were 98% and 96%, respectively. Besides, the “% buffer control (number of lung tumors)” value came out at 91% in [6] (30 μg/mouse), 102% in assay [6] (100 μg/mouse) and 50% in assay [6] (300 μg/mouse). Besides, the “number of tumors compared with controls” value in assay [6] is recorded as “statistically fewer tumors than controls”. Besides, the “size of lung tumors” value in assay [6] is “smaller in size”.
For Arg-Gly-Asp, in assay [3] (0.50 mM), the “% inhibition (MMP-9)” value was found to be 0% and the “Relative MMP-9 Levels” value turned out to be 1.03. Also, the “inhibited MMP-9 production” value in assay [3] is on record as “no effects”.
Take Heparin: the “% inhibition (MMP-9)” value in assay [3] (50 μg/ml) was determined as 6%; in assay [3] (500 μg/ml) it was 55%; in [3] (1000 μg/ml), 50%. In addition, the “Relative MMP-9 Levels” value in assay [3] (50 μg/ml) was 0.94; in assay [3] (500 μg/ml), 0.45; in [3] (1000 μg/ml), 0.50. Moreover, the “inhibited MMP-9 production” value in assay [3] is given as 50%.
